In the NIST ThermoML archive (doi:10.1021/je800159w):
Numbers after ± are expanded uncertainties.

Key:
[1] = xn = mol fraction of the nth substance listed; conditions: 101 kPa, Liquid
[2] = refractive index (Na D-line) (dimensionless); xn = mol fraction of the nth substance listed; conditions: 298.15 K, 101 kPa, Liquid, Standard Abbe refractometry
[3] = refractive index (Na D-line) (dimensionless); conditions: 101.33 kPa, Liquid, Standard Abbe refractometry
[4] = Liquid

CCOS(=O)(=O)[O-].CC[n+]1cccc(C)c1 [1-ethyl-3-methylpyridinium ethylsulfate] + CCO
[1]
Conditions	mass density, 298.15 K [kg/m3]	mass density, 313.15 K [kg/m3]	mass density, 328.15 K [kg/m3]	viscosity, 298.15 K [mPa·s]	viscosity, 313.15 K [mPa·s]	viscosity, 328.15 K [mPa·s]
x2 = 0.0609	1214.93 ± 3.8	1205.03 ± 3.7	1195.2 ± 3.6	116.7 ± 14	55.2 ± 1.1	31.2 ± 1.1
x2 = 0.1108	1208.33 ± 3.5	1198.38 ± 3.4	1188.52 ± 3.4	96.9 ± 8.9	48.57 ± 1.7	28.12 ± 1
x2 = 0.2066	1193.93 ± 3	1183.86 ± 2.9	1173.91 ± 2.8	68 ± 3	36.25 ± 1.3	21.86 ± 0.83
x2 = 0.3083	1175.71 ± 2.5	1165.53 ± 2.4	1155.46 ± 2.3	45.35 ± 1.6	25.91 ± 0.93	16.41 ± 0.68
x2 = 0.4004	1155.73 ± 2	1145.51 ± 2	1135.36 ± 1.9	31.11 ± 1.1	18.88 ± 0.74	12.52 ± 0.58
x2 = 0.4998	1129.53 ± 1.6	1119.07 ± 1.6	1108.74 ± 1.5	20.04 ± 0.76	12.92 ± 0.59	8.971 ± 0.51
x2 = 0.6034	1094.96 ± 1.2	1084.3 ± 1.2	1073.73 ± 1.1	12.17 ± 0.57	8.317 ± 0.5	6.023 ± 0.46
x2 = 0.7034	1051.68 ± 0.86	1040.72 ± 0.81	1029.83 ± 0.75	7.452 ± 0.48	5.332 ± 0.45	3.99 ± 0.43
x2 = 0.8452	961.67 ± 0.64	950.09 ± 0.69	938.48 ± 0.74	3.322 ± 0.42	2.502 ± 0.41	1.943 ± 0.41
x2 = 0.9389	870.77 ± 1	858.52 ± 1.1	846.1 ± 1.1	1.812 ± 0.41	1.388 ± 0.4	1.086 ± 0.4

[2]
Conditions	refractive index
x2 = 0.0609	1.50392 ± 0.00065
x2 = 0.1108	1.50181 ± 0.00062
x2 = 0.2066	1.4973 ± 0.00058
x2 = 0.3083	1.49126 ± 0.00053
x2 = 0.4004	1.48469 ± 0.00049
x2 = 0.4998	1.476 ± 0.00045
x2 = 0.6034	1.46448 ± 0.00041
x2 = 0.7034	1.45003 ± 0.00038
x2 = 0.8452	1.41977 ± 0.00034
x2 = 0.9389	1.38864 ± 0.00032

CCOS(=O)(=O)[O-].CC[n+]1cccc(C)c1 [1-ethyl-3-methylpyridinium ethylsulfate]
[3]
Conditions	refractive index
298.15 K	1.50666 ± 0.00068
303.15 K	1.50525 ± 0.00068
308.15 K	1.50386 ± 0.00068
313.15 K	1.50246 ± 0.00068
318.15 K	1.50106 ± 0.00068
323.15 K	1.49965 ± 0.00068
328.15 K	1.49825 ± 0.00068
333.15 K	1.49683 ± 0.00068
338.15 K	1.4954 ± 0.00068
343.15 K	1.49361 ± 0.00068

[4], 101.33 kPa
Conditions	mass density [kg/m3]	viscosity [mPa·s]
298.15 K	1222.26 ± 4.2	161.4 ± 26
303.15 K	1219.02 ± 4.2	123.6 ± 15
308.15 K	1215.78 ± 4.1	96.9 ± 8.9
313.15 K	1212.54 ± 4.1	77.1 ± 4.8
318.15 K	1209.39 ± 4.1	62.2 ± 2.1
323.15 K	1206.13 ± 4.1	50.55 ± 0.86
328.15 K	1202.86 ± 4	42.32 ± 1.5
333.15 K	1199.63 ± 4	35.52 ± 1.3
338.15 K	1196.43 ± 4	30.11 ± 1.1
343.15 K	1193.25 ± 3.9	25.69 ± 0.96

CCO [ethanol]
Conditions	refractive index
[3], 298.15 K	1.36023 ± 0.00031

[4], 101 kPa
Conditions	mass density [kg/m3]	viscosity [mPa·s]
298.15 K	785.46 ± 1.4	1.082 ± 0.4
313.15 K	772 ± 1.4	0.827 ± 0.4
328.15 K	758.55 ± 1.5	0.641
